Measurements as given in patent US4794110A, “5-Aryl-11-substituted-5H,11H-pyrrolo[2,1-c][1,4]benzoxazepined as analgesic and hypotensive agents” (Hoechst-Roussel Pharmaceuticals, Inc., priority 1987, dated 1988).
Values joined by “and” are separate entries in the source; they are usually repeats but may differ in a detail not shown here. Identical values can stand only once.

What was measured:
[1] = tested on: 2-phenyl-1,4-benzoquinone-induced writhing; assay: 2-phenyl-1,4-benzoquinone-induced writhing test in mice (analgesic activity, phenylquinone writhing); assay type: in vivo
From the text: The compounds of formula I of the present invention are useful as analgesic agents due to their ability to alleviate pain in mammals. […] Exptl. Biol. Med., 95, 729 (1957)].

[2] = tested on: spontaneous hypertensive rat; assay: Antihypertensive activity in the spontaneous hypertensive rat by the indirect tail cuff method; assay type: in vivo; conditions: mean arterial blood pressure, third day
Description: In this procedure a group of five animals are treated orally for three days with the test compound in relation to a control group of the same number. The drop in blood pressure is measured on the third day following administration.

CCC(=O)O[C@](Cc1ccccc1)(c1ccccc1)[C@H](C)CN(C)C [propoxyphene, reference compound]
Analgesic PQW, % Inhibition of Writhing ([1]; 3.9 mg/kg s.c., reference compound): 50%

O=C(O)C(=O)O.c1ccc(CN2CCC(C3Oc4ccccc4C(c4ccccc4)n4cccc43)CC2)cc1 (centres unmarked) [11-(1-Benzyl-4-piperidinyl)-5-phenyl-5H,11H-pyrrolo[2,1-c][1,4]benzoxazepine oxalate]
Analgesic PQW, % Inhibition of Writhing ([1]; 20 mg/kg, s.c.): 34%
Decrease in Blood Pressure ([2]; 3 mg/kg, p.o.): 44 mmHg

CN(C)CC1Oc2ccccc2C(c2ccccc2)n2cccc21.Cl (single isomer, unassigned) [11-dimethylaminomethyl-5-phenyl-5H,11H--pyrrolo[2,1-c][1,4]b] [11-Dimethylaminomethyl-5-phenyl-5H,11H-pyrrolo[2,1-c][1,4]benzoxazepine hydrochloride]
Analgesic PQW, % Inhibition of Writhing ([1]; 20 mg/kg, s.c., hydrochloride): 24% and 35%

C[C@H](CS)C(=O)N1CCC[C@H]1C(=O)O [captopril, reference compound]
Decrease in Blood Pressure ([2]; 10 mg/kg p.o., reference compound): 33 mmHg
